In test [1] the test system is A549 human lung carcinoma cell line. Nature of the test: MTT cell viability assay, A549. In kind it is cell-based. The conditions noted are these: 0.01 to 100 μM, read-out: IC50 (μM) ± S.D A549. How it is done: (§1) The MDA-MB-231 human breast adenocarcinoma cell line (ATCC HTB-26), A549 human lung carcinoma cell line (ATCC CCL-185), TOV-21G human ovarian adenocarcinoma cell line (ATCC CRL-11730), and WI-26VA4 human lung fibroblast cell line (ATCC CCL-95.1) were cultured in RPMI-1640 medium supplemented with 10% fetal bovine serum (FBS) and gentamicin (100 μg/mL). Cells were maintained at 37 °C in a humidified atmosphere containing 5% CO2.
(§2) Cell viability was assessed using the MTT assay (3-[4,5-dimethylthiazol-2-yl]-2,5-diphenyl-tetrazolium bromide). Briefly, 100 μL of complete medium containing 1 × 10^4 cells was added to each well of a 96-well tissue culture plate. Cells were incubated at 37 °C in a humidified atmosphere with 5% CO2 for 24 h prior to treatment. Following medium removal, 100 μL of fresh medium containing the test compounds at concentrations ranging from 0.01 to 100 μM was added to each well, and cells were incubated for 48 h under the same conditions. All compounds were presolubilized in dimethyl sulfoxide (DMSO), and the final DMSO concentration in all treatments was maintained at ≤ 0.2% to avoid interference with cell viability.
(§3) After treatment, the medium was replaced with 100 μL of MTT solution (0.5 mg/mL) per well, followed by a 3 h incubation. Formazan crystals were dissolved by adding 100 μL of DMSO to each well, and absorbance was measured at 550 nm using a microplate reader (SpectraMax M5e, Molecular Devices, Sunnyvale, CA, USA). The percentage of growth inhibition was calculated as [1-(Abs of treated/Abs of control)]×100. All experiments were conducted in triplicate, and results are expressed as mean IC50 values, which were determined using OriginPro 8.0 software (OriginLab Corporation, Northampton, MA, USA).
For orientation: Tetrazolium dyes change colour on reduction, which living cells bring about.

Test [2] can be described thus: Mass loss (gravimetric) corrosion inhibition test. The conditions noted are these: 2 mmol L–1 inhibitor, 5% (v/v) DMSO in HCl 1 mol L–1, 4 h immersion, relative to solution without inhibitor. How it is done: SAE 1020 steel plates, with a composition of C (0.18–0.23%), Mn (0.3–0.6%), P (0.03%), and S (0.05%), and dimensions of 2.5 × 2.5 × 0.13 cm, were polished sequentially using emery papers of increasing grit sizes (150, 220, 320, 400 and 600). After polishing, the plates were thoroughly rinsed with deionized (Milli-Q) water.
A control solution was prepared by dissolving 5% (v/v) dimethyl sulfoxide in HCl 1 mol L^–1. Inhibitor-containing solutions were prepared by adding 2 mmol L^–1 of the inhibitor to 5% (v/v) dimethyl sulfoxide in HCl 1 mol L^–1 using deionized (Milli-Q) water. SAE 1020 steel plates were immersed in these solutions for a duration of 4 h.
The gravimetric method was employed to evaluate corrosion resistance by weighing the steel plates before and after immersion in the aqueous HCl solution. The mass loss (w) was calculated as the difference between the average initial mass (m i) and final mass (m f) of each plate (eq ). This information was subsequently used to determine the inhibition efficiency (IE) according to eq , where w 0 and w represent the mass losses in the absence and presence of the inhibitor, respectively. All measurements were performed in triplicate to ensure accuracy and reliability, and the reported values correspond to the average of these three determinations. , 5 w=[…] 6 IE(%)=(w^0−w)/w^0.100

The test system of test [3] is MDA-MB-231 human breast adenocarcinoma cell line. The experiment in a line: MTT cell viability assay, MDA-MB-231. In kind it is cell-based. The conditions noted are these: 0.01 to 100 μM, read-out: IC50 (μM) ± S.D MDA-MB-231. How it is done: as §1, §2, §3
For test [4], the system named is WI-26VA4 human lung fibroblast cell line. Nature of the test: MTT cell viability assay, WI-26VA4. In kind it is cell-based. The conditions noted are these: 0.01 to 100 μM, read-out: IC50 (μM) ± S.D WI-26VA4. How it is done:
as §1, §2, §3

Test [5] deals with TOV-21G human ovarian adenocarcinoma cell line. Nature of the test: MTT cell viability assay, TOV-21G. In kind it is cell-based. The conditions noted are these: 48 h, 0.01 to 100 μM, read-out: IC50 (μM) ± S.D TOV-21G. How it is done:
as §1, §2, §3

Read-outs that look alike come from different tables or passages of the source.

Six compounds from PMC12612871, “Novel 1,3-Diazepines as Nontoxic Corrosion Inhibitors” (ACS Omega, 2025) can be followed below.

Consider `CCOC(=O)C(C(=O)OCC)=C1NCCCCN1` [compound 13, Diethyl 2-(1,3-diazepan-2-ylidene)-malonate], for which the IC50 (as a rule, the concentration that gives 50% inhibition) in test [1] (Homo sapiens, A549, 48 h) was above 100 µM; in test [3] (Homo sapiens, MDA-MB-231, 48 h) it was above 100 µM; in test [4] (Homo sapiens, WI26VA4, 48 h) it was above 100 µM; in test [5] (Homo sapiens, TOV21G) it was above 100 µM. Moreover, the “IE (%) corrosion inhibition efficiency by mass loss” value in test [2] is given as 19 ± 5.4%.

On to `N#CC(C#N)=C1NCCCCN1` [compound 11, 2-(1,3-Diazepan-2-ylidene)-malononitrile], for which the IC50 in test [1] (Homo sapiens, A549, 48 h) was above 100 µM; in test [3] (Homo sapiens, MDA-MB-231, 48 h), above 100 µM; in test [4] (Homo sapiens, WI26VA4, 48 h), above 100 µM; in test [5] (Homo sapiens, TOV21G), above 100 µM. Further, the “IE (%) corrosion inhibition efficiency by mass loss” value in test [2] came out at 88 ± 0.9%.

In the case of “2-(nitromethylene)-1,3-diazepine [compound 10]”, the concentration for half-maximal inhibition (IC50) in test [1] (48 h), in test [3] (48 h), in test [4] (48 h) and in test [5] was above 100 µM in each case. Further, the “IE (%) corrosion inhibition efficiency by mass loss” value in test [2] was determined as 91 ± 0.7%.

Regarding `COc1cccc2c1C(=O)c1c(O)c3c(c(O)c1C2=O)C[C@@](O)(C(=O)CO)C[C@@H]3O[C@H]1C[C@H](N)[C@H](O)[C@H](C)O1` [doxorubicin, reference compound], the IC50 came out at 0.67 ± 0.4 µM in test [1] (Homo sapiens, A549, 48 h); 2.6 ± 0.8 µM in test [3] (Homo sapiens, MDA-MB-231, 48 h); 7 ± 2 µM in test [4] (Homo sapiens, WI26VA4, 48 h); 8.3 ± 4 µM in test [5] (Homo sapiens, TOV21G).

With `COC(=O)C(C#N)=C1NCCCCN1` [compound 12, Methyl 2-cyano-2-(1,3-diazepan-2-ylidene)-acetate], the IC50 in test [1] (Homo sapiens, A549, 48 h) is above 100 µM; in test [3] (Homo sapiens, MDA-MB-231, 48 h), above 100 µM; in test [4] (Homo sapiens, WI26VA4, 48 h), above 100 µM; in test [5] (Homo sapiens, TOV21G), above 100 µM. In addition, the “IE (%) corrosion inhibition efficiency by mass loss” value in test [2] was determined as 92 ± 0.6%.

In the case of `N#CC(C(=O)c1ccccc1)=C1NCCCCN1` [compound 14, 2-(1,3-Diazepan-2-ylidene)-3-oxo-3-phenylpropanenitrile], the “IE (%) corrosion inhibition efficiency by mass loss” value in test [2] is 94 ± 2.5%. Moreover, the IC50 in test [3] (Homo sapiens, MDA-MB-231, 48 h) was above 100 µM; in test [4] (Homo sapiens, WI26VA4, 48 h), above 100 µM; in test [5] (Homo sapiens, TOV21G), above 100 µM.
